Results: ChEMBL document CHEMBL1201862, “PubChem BioAssay data set” (2004)
The source made the active and inactive calls.

Tests used:
[1] = Luminescence Cell-Based Dose Response to Identify Activators of 5'UTR Stem-Loop Driven Prion Protein mRNA Translation in H4-C Neuroglioblastoma Cells. [Related pubchem assays: 1829 (Project Summary), 1814 (Primary HTS)]; assay type: functional
[2] = Luminescence Cell-Based Dose Response HTS to Identify Activators of Luciferase Translation or Activity in H4 […] Cells. [Related pubchem assays: 1829 (Project Summary), 1814 (Primary HTS)]; assay type: functional
Orexin receptor type 2 [3] = molecular target: T1, Orexin receptor type 2 (Homo sapiens, UniProt O43614); assay: Counterscreen assay for antagonists of the orexin 1 receptor (OX1R; HCRTR1): Fluorescence-based cell-based dose response assay for antagonists of the orexin 2 receptor (OX2R; HCRTR2), run by assay provider.; assay type: functional
T1 sequence (O43614 whole entry): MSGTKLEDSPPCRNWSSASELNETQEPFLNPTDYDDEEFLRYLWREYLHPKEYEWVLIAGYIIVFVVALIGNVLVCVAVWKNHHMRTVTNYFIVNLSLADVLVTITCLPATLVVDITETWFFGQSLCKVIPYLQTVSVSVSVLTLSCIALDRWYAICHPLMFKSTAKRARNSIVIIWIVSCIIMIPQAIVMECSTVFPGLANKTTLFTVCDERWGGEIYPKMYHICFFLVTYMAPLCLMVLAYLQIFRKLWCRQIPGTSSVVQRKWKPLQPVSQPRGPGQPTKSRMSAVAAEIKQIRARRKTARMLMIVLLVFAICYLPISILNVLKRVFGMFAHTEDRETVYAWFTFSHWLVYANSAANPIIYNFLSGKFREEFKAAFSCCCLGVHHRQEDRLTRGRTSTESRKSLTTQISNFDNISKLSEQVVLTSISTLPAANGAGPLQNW

[4] = (§1) Counterscreen for antagonists of the orexin 1 receptor (OX1R; HCRTR1): Fluorescence-based cell-based high throughput dose response assay to identify antagonists of the parental CHO cell line. [Related pubchem assays (depositor defined):AID434989, AID435008, AID463079, AID485270, AID492963, AID492964, AID492965, AID493232, AID504699, AID504701]; assay type: functional
[5] = Luminescence Cell-Based Dose Confirmation to Identify Activators of 5'UTR Stem-Loop Driven Alpha-Synuclein mRNA Translation in H4 Neuroglioblastoma Cells. [Related pubchem assays: 1829 (Project Summary), 1814 (Primary HTS)]; assay type: functional
Orexin receptor type 2 [6] = molecular target: T1, Orexin receptor type 2; assay: Counterscreen assay for antagonists of the orexin 1 receptor (OX1R; HCRTR1): Homogeneous Time Resolved Fluorescence (HTRF)-based cell-based dose response assay for antagonists of the orexin 2 receptor (OX2R; HCRTR2), run by assay provider.; assay type: functional
H4 = assay: Luminescence Cell-Based Dose Response HTS to Identify Activators of 5'UTR Stem-Loop Driven Prion Protein mRNA Translation in H4 Neuroglioblastoma Cells. [Related pubchem assays: 1829 (Project Summary), 1814 (Primary HTS)]; assay type: functional; details: Homo sapiens
CHO-K1 = assay: as §1, with “Homogeneous time resolved fluorescence (HTRF)-based” for “Fluorescence-based”, “cell-based” for “cell-based high throughput”, “CHO-K1” for “CHO”; assay type: functional; details: Cricetulus griseus
[7] = Luminescence Cell-Based Dose Response to Identify Activators of Luciferase Translation or Activity in H4-C Neuroglioblastoma Cells. [Related pubchem assays: 1829 (Project Summary), 1814 (Primary HTS)]; assay type: functional
[8] = molecular target: T2, Orexin/Hypocretin receptor type 1 (Homo sapiens, UniProt O43613); assay: (§2) Fluorescence-based cell-based high throughput dose response assay for antagonists of the orexin 1 receptor (OX1R; HCRTR1). [Related pubchem assays (depositor defined):AID434989, AID435008, AID463079, AID485270, AID492963, AID492964, AID492965, AID493232, AID504717, AID504718]; assay type: functional
T2 sequence (O43613 whole entry): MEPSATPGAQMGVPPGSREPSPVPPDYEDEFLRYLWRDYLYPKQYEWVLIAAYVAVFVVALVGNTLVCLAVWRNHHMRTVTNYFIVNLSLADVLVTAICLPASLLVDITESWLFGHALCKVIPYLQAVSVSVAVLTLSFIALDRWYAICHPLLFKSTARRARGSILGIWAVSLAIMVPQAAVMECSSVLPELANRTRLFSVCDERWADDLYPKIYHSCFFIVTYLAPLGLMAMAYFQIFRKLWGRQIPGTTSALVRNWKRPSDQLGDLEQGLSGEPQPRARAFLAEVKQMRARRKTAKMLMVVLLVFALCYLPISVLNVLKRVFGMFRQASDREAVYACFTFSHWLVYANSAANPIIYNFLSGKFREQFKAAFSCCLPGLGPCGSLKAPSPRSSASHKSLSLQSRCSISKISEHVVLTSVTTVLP

[9] = molecular target: T2, Orexin/Hypocretin receptor type 1; assay: as §2, with “Homogeneous Time Resolved Fluorescence (HTRF)-based” for “Fluorescence-based”; assay type: functional
[10] = THP-1 cell cytotoxicity, cytotoxicity control, set 6 (AID 602433); assay type: functional; details: Mycobacterium tuberculosis
INS1 = assay: INS-1E survival protection against cytokine death – cell-based, luminescence, retest, dose response (AID 449756); assay type: functional; details: Rattus norvegicus;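 also: cell death triggered by IL-1 beta plus TNF-alpha plus IFN-gamma mixture; protective hits raise ATP signal compared with cytokine alone wells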
Beta Lactamase = Beta Lactamase (Pseudomonas aeruginosa, UniProt Q932Y6); assay: BLA reporter interference, concentration series – BLA reporter cells, FRET fluorescence, artefact control for TLR9-MyD88 binding inhibitor project, dose response (AID 588341); assay type: cell-based;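 also: cell based assay in CHO-K1 cells stably expressing beta-lactamase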
Chain of Beta Lactamase (Q932Y6 whole entry, the tested form may be a part): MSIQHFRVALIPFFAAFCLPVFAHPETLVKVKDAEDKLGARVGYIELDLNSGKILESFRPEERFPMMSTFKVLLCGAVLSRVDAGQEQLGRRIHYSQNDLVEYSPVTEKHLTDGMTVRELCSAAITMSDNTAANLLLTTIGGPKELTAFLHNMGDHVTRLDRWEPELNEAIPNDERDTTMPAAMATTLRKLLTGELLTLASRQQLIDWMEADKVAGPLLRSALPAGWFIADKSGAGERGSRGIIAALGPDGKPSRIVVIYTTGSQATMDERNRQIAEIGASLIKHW

[11] = molecular target: NACHT, LRR and PYD domains-containing protein 3 (Homo sapiens, UniProt Q96P20); assay: NALP3 inhibitors in yeast, dose response, luminescent (AID 488799); assay type: functional
Chain of NACHT, LRR and PYD domains-containing protein 3 (Q96P20 whole entry, the tested form may be a part): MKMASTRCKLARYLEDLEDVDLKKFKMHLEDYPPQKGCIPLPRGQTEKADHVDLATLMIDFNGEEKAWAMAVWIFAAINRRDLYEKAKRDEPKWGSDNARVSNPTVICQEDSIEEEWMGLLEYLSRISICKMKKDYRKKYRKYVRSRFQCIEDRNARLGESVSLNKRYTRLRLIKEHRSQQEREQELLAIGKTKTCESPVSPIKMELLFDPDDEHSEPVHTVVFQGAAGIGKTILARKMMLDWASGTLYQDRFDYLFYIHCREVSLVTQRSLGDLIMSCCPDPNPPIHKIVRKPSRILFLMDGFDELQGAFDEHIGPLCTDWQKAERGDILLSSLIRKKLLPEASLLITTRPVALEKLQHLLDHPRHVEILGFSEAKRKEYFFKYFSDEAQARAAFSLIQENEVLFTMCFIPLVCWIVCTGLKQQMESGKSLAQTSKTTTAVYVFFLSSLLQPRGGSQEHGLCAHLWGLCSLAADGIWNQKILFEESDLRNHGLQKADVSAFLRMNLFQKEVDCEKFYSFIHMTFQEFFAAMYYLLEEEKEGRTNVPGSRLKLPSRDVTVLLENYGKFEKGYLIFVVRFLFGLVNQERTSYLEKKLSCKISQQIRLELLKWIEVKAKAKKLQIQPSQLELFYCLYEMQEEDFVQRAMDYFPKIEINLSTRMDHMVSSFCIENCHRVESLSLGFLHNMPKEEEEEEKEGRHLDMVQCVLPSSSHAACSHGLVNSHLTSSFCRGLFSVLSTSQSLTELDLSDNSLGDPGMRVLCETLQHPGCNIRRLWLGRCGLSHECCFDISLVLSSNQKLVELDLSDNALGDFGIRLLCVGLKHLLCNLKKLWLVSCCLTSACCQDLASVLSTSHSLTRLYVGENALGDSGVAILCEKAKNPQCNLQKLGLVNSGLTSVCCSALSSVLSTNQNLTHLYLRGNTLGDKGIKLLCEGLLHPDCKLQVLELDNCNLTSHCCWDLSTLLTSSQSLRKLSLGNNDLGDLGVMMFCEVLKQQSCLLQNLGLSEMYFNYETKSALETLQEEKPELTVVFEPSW

[12] = molecular target: T3, Replicative DNA helicase DnaB (Mycobacterium tuberculosis, UniProt P9WMR3); assay: DnaB intein splicing inhibitors, dose response, biochemical, cell-free fluorescence (AID 449749); assay type: functional
T3 sequence (P9WMR3 whole entry): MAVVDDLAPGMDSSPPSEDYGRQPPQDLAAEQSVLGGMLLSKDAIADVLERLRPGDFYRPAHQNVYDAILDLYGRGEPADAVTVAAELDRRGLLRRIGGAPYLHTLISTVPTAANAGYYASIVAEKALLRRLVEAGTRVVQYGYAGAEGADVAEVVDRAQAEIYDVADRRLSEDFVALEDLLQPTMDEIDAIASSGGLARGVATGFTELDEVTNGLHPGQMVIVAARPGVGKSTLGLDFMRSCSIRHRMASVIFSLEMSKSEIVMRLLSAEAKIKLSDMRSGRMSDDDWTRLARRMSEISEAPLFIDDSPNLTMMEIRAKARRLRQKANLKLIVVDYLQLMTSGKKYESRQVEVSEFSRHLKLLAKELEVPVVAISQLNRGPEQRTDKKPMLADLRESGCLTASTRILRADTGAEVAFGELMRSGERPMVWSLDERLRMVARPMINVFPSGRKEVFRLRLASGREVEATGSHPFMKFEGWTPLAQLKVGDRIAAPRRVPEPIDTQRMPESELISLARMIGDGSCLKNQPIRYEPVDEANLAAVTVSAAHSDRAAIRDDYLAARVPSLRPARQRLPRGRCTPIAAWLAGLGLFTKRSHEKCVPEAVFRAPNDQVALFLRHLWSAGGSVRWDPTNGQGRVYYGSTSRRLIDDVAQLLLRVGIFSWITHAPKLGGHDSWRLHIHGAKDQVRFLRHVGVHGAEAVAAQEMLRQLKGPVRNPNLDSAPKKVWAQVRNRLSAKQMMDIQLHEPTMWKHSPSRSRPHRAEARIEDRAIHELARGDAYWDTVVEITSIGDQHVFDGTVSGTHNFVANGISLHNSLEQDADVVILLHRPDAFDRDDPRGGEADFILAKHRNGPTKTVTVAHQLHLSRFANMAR

CHO = CHO cell viability loss, potency – luminescence, cytotoxicity control for TLR9-MyD88 binding inhibitor project, dose response (AID 588339); assay type: functional, cell-based, hamster; details: Cricetulus griseus;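 also: CHO cells stably coexpressing TLR9 and MyD88 fusions from primary screen; compound exposure lasted 48 hours before viability readout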
[13] = non-specific 3'UTR reporter inhibition in Clone20-Shn3RL – cell-based, Renilla luciferase, cherry-picked, counter-screen for Shn3 inhibitor project, dose response (AID 624133); assay type: functional
[14] = loss of viability in HepG2 cells – cell-based, CellTiter-Glo, cherry-picked, cytotoxicity control for Shn3 inhibitor project, dose response (AID 624134); assay type: functional
[15] = molecular target: ATP-binding cassette sub-family B member 6 (Homo sapiens, UniProt Q9NP58); assay: concentration-dependent ABCB6 porphyrin transport blockade – K562-ABCB6 cells, flow cytometry, cherry pick 1, dose response (AID 623955); assay type: functional; details: read-out: EC50_MICROM
Chain of ATP-binding cassette sub-family B member 6 (Q9NP58 whole entry): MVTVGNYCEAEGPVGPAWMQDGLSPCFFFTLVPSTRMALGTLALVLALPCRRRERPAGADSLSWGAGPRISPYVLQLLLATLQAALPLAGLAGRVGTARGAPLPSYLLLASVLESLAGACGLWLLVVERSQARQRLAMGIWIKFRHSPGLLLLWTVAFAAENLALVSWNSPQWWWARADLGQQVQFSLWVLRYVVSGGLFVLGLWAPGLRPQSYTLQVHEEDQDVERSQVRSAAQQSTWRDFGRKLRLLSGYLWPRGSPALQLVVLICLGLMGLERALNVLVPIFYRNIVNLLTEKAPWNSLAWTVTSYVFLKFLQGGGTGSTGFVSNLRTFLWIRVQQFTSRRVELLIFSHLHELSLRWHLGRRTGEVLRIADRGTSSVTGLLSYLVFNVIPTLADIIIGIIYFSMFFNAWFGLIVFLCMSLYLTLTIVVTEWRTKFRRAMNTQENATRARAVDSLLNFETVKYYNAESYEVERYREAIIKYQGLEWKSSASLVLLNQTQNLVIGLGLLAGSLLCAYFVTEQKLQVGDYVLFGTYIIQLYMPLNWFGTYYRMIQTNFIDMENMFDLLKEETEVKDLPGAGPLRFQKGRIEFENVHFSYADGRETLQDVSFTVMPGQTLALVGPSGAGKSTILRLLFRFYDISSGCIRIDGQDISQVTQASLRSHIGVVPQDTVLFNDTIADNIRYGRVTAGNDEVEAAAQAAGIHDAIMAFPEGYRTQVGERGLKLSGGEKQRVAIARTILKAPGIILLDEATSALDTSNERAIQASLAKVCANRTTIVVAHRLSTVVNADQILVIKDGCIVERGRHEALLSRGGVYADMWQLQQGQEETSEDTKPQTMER

[16] = reduction of Shn3 3'UTR-driven luciferase in osteoblasts – cell-based, Clone20 osteoblasts, firefly luciferase, cherry-picked, dose response (AID 624132); assay type: functional;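 also: firefly luciferase luminescence from reporter carrying the Shn3 3'UTR in osteoblasts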
[17] = molecular target: Heat shock protein HSP 90-alpha (Homo sapiens, UniProt P07900); assay type: functional, organism-based
Protein RecA = molecular target: T4, Protein RecA (Mycobacterium tuberculosis, UniProt P9WHJ3); assay: Fluorescence Cell-Free Homogeneous Dose Retest to Identify Inhibitors of RecA-Intein Splicing Activity. [Related pubchem assays (depositor defined):AID2097, AID2223, AID489010, AID492950]; assay type: functional
T4 sequence (P9WHJ3 whole entry): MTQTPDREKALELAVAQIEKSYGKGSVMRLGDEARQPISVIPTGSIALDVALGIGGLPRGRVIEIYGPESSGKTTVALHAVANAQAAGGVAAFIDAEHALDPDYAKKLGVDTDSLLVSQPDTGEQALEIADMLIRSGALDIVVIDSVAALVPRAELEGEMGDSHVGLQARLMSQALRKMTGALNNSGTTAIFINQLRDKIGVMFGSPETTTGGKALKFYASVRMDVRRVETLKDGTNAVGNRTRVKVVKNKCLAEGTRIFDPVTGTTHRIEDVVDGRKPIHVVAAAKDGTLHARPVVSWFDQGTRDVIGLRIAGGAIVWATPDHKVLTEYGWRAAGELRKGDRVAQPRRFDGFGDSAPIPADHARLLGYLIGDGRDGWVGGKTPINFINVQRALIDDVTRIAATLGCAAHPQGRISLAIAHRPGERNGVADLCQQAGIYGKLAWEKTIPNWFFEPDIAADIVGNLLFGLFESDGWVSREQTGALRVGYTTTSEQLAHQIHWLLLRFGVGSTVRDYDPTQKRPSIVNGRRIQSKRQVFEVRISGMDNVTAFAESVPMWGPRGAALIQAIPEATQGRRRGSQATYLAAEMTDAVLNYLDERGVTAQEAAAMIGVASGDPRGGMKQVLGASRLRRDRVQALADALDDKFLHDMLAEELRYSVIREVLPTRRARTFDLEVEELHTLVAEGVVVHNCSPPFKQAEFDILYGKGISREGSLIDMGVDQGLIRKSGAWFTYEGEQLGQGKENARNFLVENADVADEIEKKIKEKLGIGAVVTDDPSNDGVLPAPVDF

[18] = Luminescence Cell-Based Dose Retest to Confirm Inhibitors of Cancer Stem Cells. [Related pubchem assays (depositor defined):AID2717, AID2721]; assay type: functional; details: Homo sapiens
HEK293 [19] = assay: membrane integrity loss in HEK cells – cell-based, fluorescence, cytotoxicity control for IDE activator project, dose response (AID 588440); assay type: functional; details: Homo sapiens;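 also: cytotoxicity by LDH release measuring loss of membrane integrity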
HEK293 [20] = assay: optical interference in Abeta FP readout, dose response, artefact control for IDE activator project, biochemical, fluorescence polarization (AID 588442); assay type: functional, cell-based; details: Homo sapiens
Insulin-degrading enzyme [21] = molecular target: T5, Insulin-degrading enzyme (Homo sapiens, UniProt P14735); assay: recombinant IDE activation, cell-free – biochemical, fluorescence polarization, counter-screen for IDE activator project, dose response (AID 588681)
T5 sequence (P14735 whole entry): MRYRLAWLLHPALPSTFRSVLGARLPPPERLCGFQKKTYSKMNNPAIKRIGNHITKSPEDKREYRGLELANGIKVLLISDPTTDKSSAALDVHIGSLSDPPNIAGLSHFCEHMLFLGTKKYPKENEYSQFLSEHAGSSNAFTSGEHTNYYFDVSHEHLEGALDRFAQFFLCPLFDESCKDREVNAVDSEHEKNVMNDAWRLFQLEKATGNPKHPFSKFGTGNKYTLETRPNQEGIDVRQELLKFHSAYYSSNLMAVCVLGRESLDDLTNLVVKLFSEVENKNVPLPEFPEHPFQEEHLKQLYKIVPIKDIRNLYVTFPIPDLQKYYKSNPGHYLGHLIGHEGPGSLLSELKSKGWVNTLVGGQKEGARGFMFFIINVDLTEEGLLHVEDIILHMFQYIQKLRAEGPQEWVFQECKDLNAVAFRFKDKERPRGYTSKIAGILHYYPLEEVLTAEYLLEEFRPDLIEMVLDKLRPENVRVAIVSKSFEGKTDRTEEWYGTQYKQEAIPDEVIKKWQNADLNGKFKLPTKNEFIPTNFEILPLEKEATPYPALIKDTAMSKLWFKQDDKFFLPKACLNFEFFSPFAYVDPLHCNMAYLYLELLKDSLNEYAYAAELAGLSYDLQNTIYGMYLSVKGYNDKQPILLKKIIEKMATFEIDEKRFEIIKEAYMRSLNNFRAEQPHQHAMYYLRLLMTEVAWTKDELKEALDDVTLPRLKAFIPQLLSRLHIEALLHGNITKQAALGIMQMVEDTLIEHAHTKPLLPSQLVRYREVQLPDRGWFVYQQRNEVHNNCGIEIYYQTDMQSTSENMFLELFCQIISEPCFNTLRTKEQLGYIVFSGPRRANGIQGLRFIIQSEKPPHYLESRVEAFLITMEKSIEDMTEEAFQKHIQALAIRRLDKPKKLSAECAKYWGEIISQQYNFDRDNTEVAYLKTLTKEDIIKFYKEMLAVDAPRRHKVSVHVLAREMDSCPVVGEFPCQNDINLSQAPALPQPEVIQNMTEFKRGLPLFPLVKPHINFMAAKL

Insulin-degrading enzyme [22] = molecular target: T5, Insulin-degrading enzyme; assay: cellular IDE activation of Abeta substrate cleavage – fluorescence polarization, HEK cells, dose response (AID 588439); assay type: functional, cell-based

## O=C(Nc1ccc2sc3ccccc3c(=O)c2c1)c1ccccc1Cl
[1]
  EC50: 0.3 µM (active)
[2]
  EC50: 0.297 µM (active)
Orexin receptor type 2 [3]
  IC50: > 88.8 µM (inactive)
[4]
  IC50: > 49.8 µM (inactive)
[5]
  EC50: 0.232 µM (active)
Orexin receptor type 2 [6]
  IC50: 1.54 µM (active)
H4
  EC50: 0.199 µM (active)
CHO-K1
  IC50: > 66.2 µM (inactive)
[7]
  EC50: 0.454 µM (active)
[8]
  IC50: > 5.53 µM (active)
[9]
  IC50: 3.26 µM (active)

## O=C(c1ccc(CNc2c(N3CCOCC3)c(=O)c2=O)cc1)N1CCC(c2ccccc2)CC1
[10]
  CC50: > 100 µM (active)

## Cc1ccc(NC(=O)c2nc(S(=O)(=O)Cc3ccccc3)ncc2Cl)cc1
INS1
  AC50: 9.27 µM (active)
Beta Lactamase
  IC50: 8.3 µM (active)
[11]
  IC50: 3.58 µM (active)
[12]
  AC50: 23 µM (active)
CHO
  IC50: 3.31 µM (active)
[13]
  AC50: 6.01 µM (active)
[14]
  AC50: 24.6 µM (active)
[15]
  EC50: 34.7 µM (active)
[16]
  AC50: 3.42 µM (active)
[17]
  AC50: 3.21 µM (active)
Protein RecA
  EC50: 0.88 µM (active)
[18]
  AC50: 2.57 µM (active)

## COc1ccc(CCNC(=O)COC(=O)C2CC2C)cc1OC (stereo not drawn)
HEK293 [19]
  IC50: > 89.2 µM (inactive)
HEK293 [20]
  EC50: > 55.9 µM (inactive)
Insulin-degrading enzyme [21]
  EC50: > 54.7 µM (inactive)
Insulin-degrading enzyme [22]
  EC50: > 54.7 µM (inactive)
